In patent publication US5179100A, “4,5-dihydropyrazolo[3,4-a]acridines” (Hoechst-Roussel Pharmaceuticals inc., priority 1992, dated 1993):
Counter-ions that a name gives are not always drawn.

System: 2-phenyl-1,4-benzoquinone-induced writhing in mice
Test: 2-phenyl-1,4-benzoquinone-induced writhing test in mice (PQW Activity), analgesia
Format: in vivo
Method: Exptl. […] The tests were conducted at the subcutaneous dose of 20 mg/kg.

Row | SMILES | PQW Activity, % Inhibition (subcutaneous, 20 mg/kg) | PQW Activity, % Inhibition (33 mg/kg, s.c. (reference compound))
1 | Nc1c2c(nc3ccccc13)CCc1cnn(-c3ccccc3)c1-2 [11-Amino-4,5-dihydro-1-phenyl-1H-pyrazolo[3,4-a]acridine] | 48% | 
2 | CN(C)CCn1cc2c(n1)-c1c(nc3ccccc3c1N)CC2 [11-Amino-4,5-dihydro-2-(2-dimethylaminoethyl)-2H-pyrazolo [3,4-a]acridine] | 59% | 
3 | CCn1cc2c(n1)-c1c(nc3ccccc3c1N)CC2 [11-Amino-4,5-dihydro-2-ethyl-2H-pyrazolo[3,4-a]acridine] | 67% | 
4 | Cn1cc2c(n1)-c1c(nc3ccccc3c1N)CC2 [11-Amino-4,5-dihydro-2-methyl-2H-pyrazolo[3,4-a]acridine] | 54% | 
5 | Nc1c2c(nc3ccccc13)CCc1cn(CC(=O)O)nc1-2 [11-Amino-4,5-dihydro-2H-pyrazolo[3,4-a]acridine-2-acetic acid hydrochloride hemihydrate] | 58% | 
6 | N#CCn1cc2c(n1)-c1c(nc3ccccc3c1N)CC2 [11-Amino-4,5-dihydro-2H-pyrazolo[3,4-a]acridine-2-acetonitrile] | 47% | 
7 | CC(=O)Oc1ccccc1C(=O)O [Aspirin, reference compound] |  | 50%
